Measured values taken from US20150072929A1, “Pharmaceutical composition comprising a mixture of carboxylated oligopeptides” (priority 2013, published 2015).

Tests used:
HeLa-2 cells = experiment: Anti-cancer activity in cell culture, MAD and cytopathic activity; assay type: cell-based; settings: minimum amount causing degeneration of 90-95% of the cells, five days
Protocol: The anti-cancer activity of MPs. The determination of the anti-cancer activity of Anticanum in a cell culture was made in a culture of HeLa-2 cells. For this purpose, 20-120 mcg of MPs per ml of medium were added to the 199 medium. (See Table 2.) A culture without MPs in it was used as a control. Cultures were observed daily over the course of five days.

benzidine skin sarcoma = experiment: Benzidine skin sarcoma in Barbados mice
[1] = test system: Ehrlich's ascites adenocarcinoma; experiment: Ehrlich's ascites adenocarcinoma in Barbados mice; settings: n = 10

## CC(=O)O[C@@]12CO[C@@H]1C[C@H](O)[C@@]1(C)C(=O)[C@H](O)C3=C(C)[C@@H](OC(=O)[C@H](O)[C@@H](NC(=O)OC(C)(C)C)c4ccccc4)C[C@@](O)([C@@H](OC(=O)c4ccccc4)[C@H]21)C3(C)C [Taxotere]
HeLa-2 cells
  MAD: 10 µg/mL
Benzidine skin sarcoma; 100 mcg/kg parenterally twice a day for two weeks, n = 7
  Weight of Animal, After Treatment: 23 ± 1.1 g
Benzidine skin sarcoma; baseline, n = 7
  Weight of Animal, Before Treatment: 27 ± 2 g
Benzidine skin sarcoma; during treatment, n = 7
  Mice died: 2
Benzidine skin sarcoma; n = 10
  Animal Survival: 28 ± 1.1 days
[1]; IP
  Time of Death of Animals after the First Injection, Average Value, Experimental Animals: 14 ± 1 days
[1]; IV
  Time of Death of Animals after the First Injection, Average Value, Experimental Animals: 15 ± 1 days
